Results on five molecules are retold here after patent US11377499B2, “Targeting the cofilin pathway” (priority 2017, dated 2022).

In series [1] the test system is LIMK. Particulars: previously identified (30); cited from earlier work.
For series [2] the following is noted: prevents therapeutic use; cited from earlier work.
In series [3] the test system is cofilin phosphorylation in resting memory CD4 T cells. Kind of series: Intracellular p-cofilin staining and flow cytometry after HIV-1(AD8) or gp120(BAL) stimulation. It counts as cell-based, human. An excerpt: In addition to CXCR4, CCR5 is used by R5-tropic viruses that predominate early in the infection; R5 HIV infects and depletes gut memory CD4 T cells, leading to chronic immune activation (20, 21). Whether HIV-mediated CCR5 signaling can also lead to cofilin activation in memory T cells was investigated. In contrast to X4 viruses, which infect both memory and naïve CD4 T cells, R5 viruses infect a subpopulation of memory CD4 T cells (FIG. 1A). CCR5 is present on only around 30% of resting memory CD4 T cells (FIG. 1B). Given this low percentage, a flow cytometry-based intracellular phospho-cofilin staining method was used to quantify cofilin in individual cells. […]
A3R5.7 cell is acquired from the NIH AIDS Reagent Program. […] Viral titer (TCID50) was determined on the Rev-dependent GFP indicator cell (61), Rev-A3R5-GFP (Virongy, Manassas, Va.). […] T cells were stained with anti-CD45RO-Pacific Blue monoclonal antibody (BD Pharmingen) and analyzed by Flow Cytometry for CD45RO and GFP expression. […]
One million cells were fixed, permeabilized with methanol, washed, and then stained with an anti-human p-cofilin antibody using a commercial intracellular staining kit (Virongy, Manassas, Va.) for 60 min at room temperature. […] Cells were washed twice, and then analyzed on a FACSCalibur (BD Biosciences, San Jose, Calif.).
A general note: In flow cytometry, cells or beads pass a laser one at a time.

For series [4], the system named is cofilin phosphorylation in A3R5.7 T cells or blood resting CD4 T cells. Description: Western blot for p-cofilin and cofilin after R10015 treatment. It counts as cell-based, human. An excerpt: Cofilin hyperactivation may be associated with a migratory impairment of CCR6+ and CXCR3+ helper T cells (Th), which are prevented from trafficking from the blood stream to peripheral organs even in aviremic HIV patients on long-term ART (5). T cell migration and homing is controlled by chemotactic signaling which activates cycles of cofilin phosphorylation and dephosphorylation to drive actin dynamics for cell motility. Phosphorylation of cofilin is regulated by LIM-domain kinase (LIMK), which inactivates cofilin through serine 3 phosphorylation (28). To quantify the effect of cofilin hyperactivation on T cell migration, a recently discovered LIMK inhibitor, R10015 (29) was used, to mimic cofilin activation in HIV infection. A human CD4 T cell line, A3R5.7, or blood resting CD4 T cells were treated with different dosages of R10015 during chemotaxis (FIG. 3). […] At around 15 to 20 μM of R10015, cofilin phosphorylation was reduced to around 50%, approximately the level seen in HIV patients (FIGS. 3A and 3B).
One million cells were lysed in NuPAGE LDS Sample Buffer (Invitrogen, Carlsbad, Calif.) followed by sonication. Samples were heated at 70° C. for 10 minutes, separated by SDS-PAGE, and then transferred onto nitrocellulose membranes (Invitrogen, Carlsbad, Calif.). The membranes were washed in TBST for 3 minutes and then blocked for 30 minutes at room temperature with 5% milk. […]
A general note: In western blotting, separated proteins are transferred to a membrane and probed.

Series [5] relates to A3R5.7 T cells or blood resting CD4 T cells. Kind of series: Chemotaxis trans-well assay in response to SDF-1. It counts as cell-based, human. The protocol:
(§1) Cells were stained with PE-labeled Rat anti-human CCR5 antibody (Biolegend, San Diego, Calif.) or with a mouse anti-human α4β7 integrin antibody (Act-1) (obtained from NIH AIDS Reagent Program) followed by secondary antibody staining with Alexa Fluor 647-labelled goat anti-mouse antibodies (Invitrogen, Carlsbad, Calif.). Cells were stained on ice in PBS+0.1% BSA for 30 minutes, washed with cold PBS-0.5% BSA, and then analyzed on a FACSCalibur (BD Biosciences, San Jose, Calif.).
A half million cells were resuspended into 100 μl RPMI-1640 medium and then added to the upper chamber of a 24-well trans-well plate (Corning, Corning, N.Y.). The lower chamber was filled with 600 μl of medium premixed with SDF-1 (40 ng/ml). The plate was incubated at 37° C. for 2 hours, and then the upper chamber was removed and cells in the lower chamber were counted. Where indicated, different concentrations of R10015 (29) or DMSO were added to cell culture, incubated for 1 hour at 37° C. before adding cells to the upper chamber. Cells were also treated with the anti-human α4β7 integrin antibody (Act-1) or the control mouse IgG1 antibody for 15 minutes before adding cells to the upper chamber. Act-1 (1 μg/ml) was also added to the lower chamber with SDF-1 (40 ng/ml).

The test system of series [6] is cofilin phosphorylation in resting memory and IL-7-cultured naïve CD4 T cells (α4β7 integrin). Kind of series: Intracellular p-cofilin staining and flow cytometry after Act-1 stimulation. It counts as cell-based, human. Particulars: memory T cells treated with PTX 2 hours, then Act-1 1 μg/ml; 30 min. As to the method:
In the human peripheral blood, high levels of α4β7 were detected on a subpopulation of resting memory CD4 T cells (36).
One million cells were fixed, permeabilized with methanol, washed, and then stained with an anti-human p-cofilin antibody using a commercial intracellular staining kit (Virongy, Manassas, Va.) for 60 min at room temperature. Cells were washed twice and stained with Alexa Fluor 488-labeled chicken anti-rabbit antibodies (Invitrogen, Carlsbad, Calif.). Cells were washed twice, and then analyzed on a FACSCalibur (BD Biosciences, San Jose, Calif.).

Series [7] has as its system α4β7 on naïve CD4 T cells. Description: Surface staining of α4β7 and flow cytometry. Particulars: naïve T cells cultured in IL-7 (5 ng/ml) for 3 days; FIG. 5. It counts as cell-based, human.
From the text: All protocols involving human subjects were reviewed and approved by the George Mason University institutional review board. Peripheral blood mononuclear cells (PBMC) were purified from peripheral blood of HIV-negative donors by centrifugation in Lymphocyte Separation Medium (Corning, Corning, N.Y.), and resting CD4 T cells were further purified by two rounds of negative selection as previously described (13, 54). Briefly, for the first-round depletion, monoclonal antibodies against human CD14, CD56 and HLA-DR, DP, and DQ (BD Biosciences, San Jose, Calif.) were used. For the second-round depletion, monoclonal antibodies against human CD8, CD11b, and CD19 (BD Biosciences, San Jose, Calif.) were used. Antibody-bound cells were depleted using Dynabeads Pan Mouse IgG (Invitrogen, Carlsbad, Calif.). […]
as §1

As to `C=C1[C@@H](O)[C@@H]2O[C@]3(CC[C@H](/C=C/[C@@H](C)[C@@H]4CC(C)=C[C@@]5(O[C@H](C[C@@](C)(O)C(=O)O)CC[C@H]5O)O4)O3)CC[C@H]2O[C@@H]1[C@@H](O)C[C@H](C)[C@H]1O[C@@]2(CCCCO2)CC[C@H]1C` [okadaic acid], the “LIMK activation, cofilin phosphorylation and actin polymerization” value in series [1] was “activate LIMK and enhance cofilin phosphorylation and actin polymerization”. The toxicity entry in series [2] is “high toxicity”.

As to `Cc1nnc(C(C)C)n1C1C[C@H]2CC[C@@H](C1)N2CC[C@H](NC(=O)C1CCC(F)(F)CC1)c1ccccc1` (stereo in doubt) [maravoric], the “cofilin activation by gp120(BAL) after pretreatment with CCR5 blocker” value in series [3] (maravoric 1 μM for 1 hour, then gp120(BAL) 100 nM, FIG. 1D) is listed as “largely abrogated”.

With `COC(=O)c1ccc2nc(C3CCN(c4ncnc5[nH]cc(Cl)c45)CC3)[nH]c2c1` [R10015], in series [4] (around 15 to 20 μM R10015, one hour, A3R5.7 or blood resting CD4 T cells), the “cofilin phosphorylation reduced to” value is “around 50%”. Also, the dephosphorylation of cofilin result in series [4] (different dosages of R10015, one hour, FIGS. 3A and 3B) was “dosage-dependent dephosphorylation of cofilin”. Further, the “decrease in migrating T cells” value in series [5] (15 μM or 20 μM R10015 (50% reduction in cofilin phosphorylation), A3R5.7 and blood T cells, SDF-1 40 ng/ml) was 20-40%. Moreover, in series [5] (R10015 alone, control 8.90%, FIG. 4F), the “percentage of migrating α4β7^high T cells” value came out at 4.52%. Moreover, the “percentage of the CCR7^+ T cell subpopulation among migrating cells” value in series [5] (R10015 and Act-1, FIG. 8) was “not altered”. Further, the “impairment of T cell chemotaxis” value in series [5] (different dosages of R10015, SDF-1 40 ng/ml, FIGS. 3C and 3D) was “dosage-dependent impairment of T cell chemotaxis”.

Consider pertussis toxin, for which the “cofilin activation (dephosphorylation) following exposure to R5-HIV” value in series [3] (resting memory CD4 T cells, pertussis toxin 100 ng/ml for 1 hour, then HIV(AD8), FIG. 1C) was “largely abrogated late cofilin activation”. Moreover, the “Act-1-mediated cofilin activation after PTX” value in series [6] was “late inhibition of cofilin activation”.

B1: IL-7: cytokine used to culture naïve T cells for α4β7 surface receptor upregulation (protein, UniProt P13232 26-177, looked up)
Interleukin-7: DCDIEGKDGKQYESVLMVSIDQLLDSMKEIGSNCLNNEFNFFKRHICDANKEGMFLFRAARKLRQFLKMNSTGDFDLHLLKVSEGTTILLNCTGQVKGRKPAALGEAQPTKSLEENKSLKEQKKLNDLCFLKRLLQEIKTCWNKILMGTKEH
As for B1, the α4β7 surface expression entry in series [7] is on record as “greatly upregulate α4β7 on the cell surface”.
